In patent US20040005537A1, “Method of identifying toxic agents using differential gene expression” (priority 2000, published 2004):

Key:
[1] = grouping used to generate the distinguishing gene profiles; cited from earlier work
rat heart tissue = assay: GENECALLING differential gene expression analysis after dosing of serotonin modulating agents; assay type: in vivo, Sprague Dawley rats
Protocol: Control animals received sterile water or canola oil. The animals were sacrificed 24 hours following the last dose. Liver tissue was dissected from the animals, and total RNA was recovered from the dissected tissue. cDNA was prepared and the resulting samples were processed through using GENECALLING™ differential expression analysis as described in U.S. Pat. No. 5,871,697 and in Shimkets et al., Nature Biotechnology 17:798-803 (1999). The contents of these patents and publications are incorporated herein by reference in their entirety.
Thousands of gene fragments were initially found to be differentially expressed in rat heart tissue in response to serotonin modulating agents in. Genes fragments whose expression levels were modulated greater than ±1.5-fold were selected for further analysis.
Column 6 of Table 1, entitled “Function”, lists the type of classification assigned for the protein, based on its function. The 210 single nucleic acid sequences identified herein, are referred to herein as CARDIOTOX 1-210.

CC(C)CC(N(C)C)C1(c2ccc(Cl)cc2)CCC1 (stereo not drawn) [sibutramine]
classification as cardiotoxic or noncardiotoxic serotonin modulating agent [1]: noncardiotoxic
Effects on Transcription Level: Novel gene fragment, 524 bp, 86% SI to mouse F-box protein FBX6b [AF176526] (rat heart tissue; CARDIOTOX 1): +1.3 fold
Effects on Transcription Level: Novel gene fragment, 306 bp, 91% SI to mouse low density lipoprotein receptor related protein 4 [AB013874] (rat heart tissue; CARDIOTOX 2): −1.3 fold
Effects on Transcription Level: Novel gene fragment, 540 bp, 97% SI to mouse skeletal muscle alpha-actin [X03766] (rat heart tissue; CARDIOTOX 3): −1.1 fold
Effects on Transcription Level: Novel gene fragment, 80 bp (rat heart tissue; CARDIOTOX 4): −1.3 fold
Effects on Transcription Level: Novel gene fragment, 957 bp, 99% SI to kidney injury associated moleculer HW036 [V80591] (rat heart tissue; CARDIOTOX 5): −1.0 fold
Effects on Transcription Level: Novel gene fragment, 282 bp, 85% SI to human KIAA1515 protein [AB040948] (rat heart tissue; CARDIOTOX 6): −1.4 fold
Effects on Transcription Level: Novel gene fragment, 405 bp, 88% SI to human 2-oxoglutarate dehydrogenase [D10523] (rat heart tissue; CARDIOTOX 7): −1.4 fold
Effects on Transcription Level: UCP2 (rat heart tissue; CARDIOTOX 8, GenBank AB010743): −1.3 fold
Effects on Transcription Level: Plasma membrane Ca2 + ATPase-isoform 1 (rat heart tissue; CARDIOTOX 9, GenBank J03753): +1.2 fold
Effects on Transcription Level: Novel gene fragment, 242 bp, 97% SI to mouse HSP86 heat-shock protein [X16857] (rat heart tissue; CARDIOTOX 10): +1.4 fold
Effects on Transcription Level: Novel gene fragment, 280 bp, 65% SI to human TRF1-interacting, ankyrin-related ADP-ribose polymerase [AF082556] (rat heart tissue; CARDIOTOX 11): +1.2 fold
Effects on Transcription Level: Novel gene fragment, 348 bp, 88% SI to mouse Sec61 protein complex gamma subunit [U11027] (rat heart tissue; CARDIOTOX 12): +1.4 fold
Effects on Transcription Level: Novel gene fragment 553 bp, 93% SI to mouse Sid329 [AB024984] (rat heart tissue; CARDIOTOX 13): +1.1 fold
Effects on Transcription Level: Kruppel-like transcription factor (rat heart tissue; CARDIOTOX 14, GenBank AB020759): +1.1 fold
Effects on Transcription Level: Ribosomal protein L3 (rat heart tissue; CARDIOTOX 15, GenBank X62166): +1.3 fold
Effects on Transcription Level: Glucose-regulated protein (GRP) 75 (rat heart tissue; CARDIOTOX 16, GenBank S78556): +1.1 fold
Effects on Transcription Level: Immunoglobulin heavy chain binding protein (BiP) (rat heart tissue; CARDIOTOX 17, GenBank M14050): −1.1 fold
Effects on Transcription Level: Membrane-spannining proteoglycan NG2 (rat heart tissue; CARDIOTOX 18, GenBank X56541): −1.1 fold
Effects on Transcription Level: Novel gene fragment, 1294 bp, 96% SI to mouse Sui 1 (elF) homolog [AF129888] (rat heart tissue; CARDIOTOX 19): +1.1 fold
Effects on Transcription Level: Novel gene fragment, 723 bp, 85% SI to human translation initiation factor elF3 p40 subunit [U54559] (rat heart tissue; CARDIOTOX 20): −1.1 fold
Effects on Transcription Level: Novel gene fragment, 1324 bp, 76% SI to human flavoprotein subunit of complex II [D30648] (rat heart tissue; CARDIOTOX 21): +1.4 fold
Effects on Transcription Level: Novel gene fragment, 852 bp, 81% SI to human vacuolar proton-ATPase subunit M9.2 [Y15286] (rat heart tissue; CARDIOTOX 22): +1.2 fold
Effects on Transcription Level: Novel gene fragment, 178 bp, 91% SI to mouse myosin light chain-2 isoform MLC-2a [S70785] (rat heart tissue; CARDIOTOX 23): +1.4 fold
Effects on Transcription Level: Novel gene fragment, 167 bp, 90% SI to mouse Rab20 [X80332] (rat heart tissue; CARDIOTOX 24): +1.0 fold
Effects on Transcription Level: Novel gene fragment, 1070 bp, 80% SI to human muscle-specific protein [AF249873] (rat heart tissue; CARDIOTOX 25): +1.2 fold
Effects on Transcription Level: Novel gene fragment, 1143 bp, 82% SI to human sarcoma amplified sequence (SAS) [U01160] (rat heart tissue; CARDIOTOX 26): +1.3 fold
Effects on Transcription Level: Novel gene fragment, 74 bp,75% SI to human secreted protein [X30160] (from patent database)/[X97578] (from patent database)/potential cytokine) (rat heart tissue; CARDIOTOX 27): −1.3 fold
Effects on Transcription Level: Novel gene fragment, 408 bp, 90% SI to human CGI-07 protein [AF132941] (rat heart tissue; CARDIOTOX 28): −1.0 fold
Effects on Transcription Level: Novel gene fragment, 618 bp, 95% SI to rat progression related cDNA, ZNPE-120 3′ end partial sequence [patent database X90805] (rat heart tissue; CARDIOTOX 29): +1.0 fold
Effects on Transcription Level: Novel gene fragment, 717 bp (rat heart tissue; CARDIOTOX 30): +1.2 fold
Effects on Transcription Level: Novel gene fragment, 546 bp (rat heart tissue; CARDIOTOX 31): +1.3 fold
Effects on Transcription Level: Novel gene fragment, 920 bp, 91% SI to human HSPC061 [AF161546] (rat heart tissue; CARDIOTOX 32): +1.2 fold
Effects on Transcription Level: Novel gene fragment, 203 bp, 92% SI to rabbit sarcoplasmic reticulum glycoprotein [J04480] (rat heart tissue; CARDIOTOX 33): −1.2 fold
Effects on Transcription Level: Novel gene fragment, 178 bp, 68% SI to mouse IgG receptor (beta-Fc-gamma-RII)[M63159] (rat heart tissue; CARDIOTOX 34): +1.4 fold
Effects on Transcription Level: Ribosomal protein L6 (rat heart tissue; CARDIOTOX 35, GenBank X87107): +1.4 fold
Effects on Transcription Level: CAP2 protein (adenylyl cyclase-associated protein 2) (rat heart tissue; CARDIOTOX 36, GenBank U31935): +1.4 fold
Effects on Transcription Level: Alpha-platelet-derived growth factor receptor (rat heart tissue; CARDIOTOX 37, GenBank M63837): −1.1 fold
Effects on Transcription Level: Rab GD1 alpha protein (rat heart tissue; CARDIOTOX 38, GenBank X74402): −1.1 fold
Effects on Transcription Level: PKC-zeta-interacting protein (rat heart tissue; CARDIOTOX 39, GenBank Y08355): −1.2 fold
Effects on Transcription Level: ERK or MAP kinase (rat heart tissue; CARDIOTOX 40, GenBank X65198): +1.4 fold
Effects on Transcription Level: Peroxisomal multifunctional enzyme type II (rat heart tissue; CARDIOTOX 41, GenBank U37486): +1.3 fold
Effects on Transcription Level: HBP23 (heme-binding protein 23 kDa) (rat heart tissue; CARDIOTOX 42, GenBank D30035): +1.3 fold
Effects on Transcription Level: Caveolae-associated protein (rat heart tissue; CARDIOTOX 43, GenBank U90725): −1.0 fold
Effects on Transcription Level: Prenylated rab acceptor 1 (PRA1) (rat heart tissue; CARDIOTOX 44, GenBank AF025506): +1.4 fold
Effects on Transcription Level: Novel gene fragment, 337 bp, 88% SI to rabbit cardiac ryanodine receptor (RyR-2)[U50465] (rat heart tissue; CARDIOTOX 45): −1.3 fold
Effects on Transcription Level: Novel gene fragment, 81 bp, 85% SI to human titin [X90568] (rat heart tissue; CARDIOTOX 46): −1.3 fold
Effects on Transcription Level: Novel gene fragment, 428 bp, 86% SI to human titin [X90568] (rat heart tissue; CARDIOTOX 47): −1.1 fold
Effects on Transcription Level: Novel gene fragment, 374 bp, 88% SI to human titin [X90568] (rat heart tissue; CARDIOTOX 48): −1.2 fold
Effects on Transcription Level: Novel gene fragment, 428 bp, 85% SI to human titin [90568] (rat heart tissue; CARDIOTOX 49): −1.3 fold
Effects on Transcription Level: Novel gene fragment, 1216 bp, 93% SI to mouse mircotubule-associated protein (MAP) 1B protein [AF115776] (rat heart tissue; CARDIOTOX 50): −1.1 fold
Effects on Transcription Level: Novel gene fragment, 1115 bp, 83% SI to human KIAA0549 protein [AB011121] (rat heart tissue; CARDIOTOX 51): −1.4 fold
Effects on Transcription Level: Novel gene fragment, 153 bp (rat heart tissue; CARDIOTOX 52): −1.2 fold
Effects on Transcription Level: Novel gene fragment, 89 bp, 93% SI to human putative glialblastoma cell differentiation-related protein (GBDR1) [AF068195] (rat heart tissue; CARDIOTOX 53): +1.4 fold
Effects on Transcription Level: Rho-associated kinase beta (rat heart tissue; CARDIOTOX 54, GenBank U61266): −1.1 fold
Effects on Transcription Level: Adenylate kinase 3 (rat heart tissue; CARDIOTOX 55, GenBank D13062): +1.4 fold
Effects on Transcription Level: Amyloid beta-peptide binding protein (rat heart tissue; CARDIOTOX 56, GenBank AF049878): +1.3 fold
Effects on Transcription Level: Mitochondrial adenine nuleotide translocator (rat heart tissue; CARDIOTOX 57, GenBank D12771): +1.4 fold
Effects on Transcription Level: Novel gene fragment, 710 bp, 94% SI to mouse chromatin structural protein homolog Supt5 hp (Supt5 h)[U88539] (rat heart tissue; CARDIOTOX 58): +7.5 fold
Effects on Transcription Level: Novel gene fragment, 186 bp, 66% SI to human N-acetylglucosaminyltransferase 1 (GlcNAc-TI)[M55621] (rat heart tissue; CARDIOTOX 60): −1.9 fold
Effects on Transcription Level: Novel gene fragment, 238 bp, 95% SI to mouse MAP kinase-activated protein kinase 2 [X76850] (rat heart tissue; CARDIOTOX 61): −2.8 fold
Effects on Transcription Level: Novel gene fragment, 173 bp, 70% SI to G protein-coupled receptor kinase GRK4 [X97568] (rat heart tissue; CARDIOTOX 62): −5.3 fold
Effects on Transcription Level: Novel gene fragment, 133 bp, 77% SI to human apoptosis related protein hSARP3 [patent database: V19114] (rat heart tissue; CARDIOTOX 63): −2.0 fold
Effects on Transcription Level: Novel gene fragment, 477 bp, 98% SI to peroxisomal phytanoyl-CoA hydroxylase (PHYH) [AF121345] (rat heart tissue; CARDIOTOX 64): +7.0 fold
Effects on Transcription Level: Novel gene fragment, 413 bp, 95% SI to mouse dihydrolipoamide dehydrogenase (Dld) [U73445] (rat heart tissue; CARDIOTOX 65): +1.6 fold
Effects on Transcription Level: Novel gene fragment, 726 bp, 76% SI to human succinate dehydrogenase flavoprotein subunit (SDH) [L21936] (rat heart tissue; CARDIOTOX 66): −3.0 fold
Effects on Transcription Level: Novel gene fragment, 440 bp, 92% SI to mouse cytochrome c oxidase Vllc [X52940] (rat heart tissue; CARDIOTOX 67): +11.5 fold
Effects on Transcription Level: Novel gene fragment, 276 bp, 80% SI to human titin [X90568] (rat heart tissue; CARDIOTOX 68): −6.6 fold
Effects on Transcription Level: Novel gene fragment, 149 bp, 70% SI to human titin [X90568] (rat heart tissue; CARDIOTOX 69): −2.4 fold
